In article PMC6127930 (2018):

Tested on: oxytetracycline binding aptamer (OBA) (DNA, aptamer) CGTACGGAATTCGCTAGCACGTTGACGCTGGTGCCCGGTTGTGGTGCGAGTGTTGTGTGGATCCGAGCTCCACGTG
Experiment: magnetic capture, UV-Vis of unbound at 368 nm
Settings: 100 mM NaCl, 5 mM KCl, 2 mM MgCl2, 1 mM CaCl2, 20 mM Tris-HCl pH 7.6, room temperature, 2 h

For `CN(C)[C@@H]1C(=O)C(C(N)=O)=C(O)[C@@]2(O)C(=O)C3=C(O)c4c(O)cccc4[C@@](C)(O)[C@H]3[C@H](O)[C@@H]12`, the binding (5 µM compound, 85 ± 2.8% captured) was “yes”.

In the case of `COc1ccc2cc([C@H](C)C(=O)O)ccc2c1`, the binding (tested at 5 µM, 9.0 ± 1.3% non-specifically adsorbed) is reported as “no”.

`O=C(O)Cc1ccccc1Nc1c(Cl)cccc1Cl` was tested, and the binding (tested at 5 µM, 8.7 ± 3.7% non-specifically adsorbed) was “no”.
